According to patent publication US20260152491A1, “PESTICIDALLY ACTIVE HETEROCYCLIC DERIVATIVES WITH SULFUR CONTAINING SUBSTITUENTS” (SYNGENTA CROP PROTECTION AG, priority 2022, published 2026):

Experiments:
Type in all cases: in vivo
[1] = test system: Chilo suppressalis; experiment: Activity against Chilo suppressalis (striped rice stemborer), artificial diet in 24-well plates; settings: 144 h, application rate 200 ppm, L2 larvae, 6 days after infestation, in comparison to untreated samples, read-out: control (at least one of mortality, anti-feedant effect, growth inhibition)
Method: Example B1: Activity Against Chilo suppressalis (Striped Rice Stemborer)
24-well microtiter plates with artificial diet were treated with aqueous test solutions prepared from 10'000 ppm DMSO stock solutions by pipetting. After drying, the plates were infested with L2 larvae (6-8 per well). The samples were assessed for mortality, anti-feeding effect, and growth inhibition in comparison to untreated samples 6 days after infestation. Control of Chilo suppressalis by a test sample is given when at least one of the categories mortality, anti-feedant effect, and growth inhibition is higher than the untreated sample.

[2] = test system: Diabrotica balteata; experiment: Activity against Diabrotica balteata (corn root worm), maize sprouts sprayed; settings: 96 h, application rate 200 ppm, L2 larvae, 4 days after infestation, in comparison to untreated samples, read-out: effect in at least one of the two categories (mortality or growth inhibition)
Method: Example B2: Activity Against Diabrotica Balteata (Corn Root Worm)
Maize sprouts placed onto an agar layer in 24-well microtiter plates were treated with aqueous test solutions prepared from 10'000 ppm DMSO stock solutions by spraying. After drying, the plates were infested with L2 larvae (6 to 10 per well). The samples were assessed for mortality and growth inhibition in comparison to untreated samples 4 days after infestation.

[3] = test system: Euschistus heros; experiment: Activity against Euschistus heros (neotropical brown stink bug), soybean leaves sprayed; settings: 120 h, application rate 200 ppm, N2 nymphs, 5 days after infestation, in comparison to untreated samples, read-out: effect in at least one of the two categories (mortality or growth inhibition)
Method: Example B3: Activity Against Euschistus heros (Neotropical Brown Stink Bug)
Soybean leaves on agar in 24-well microtiter plates were sprayed with aqueous test solutions prepared from 10'000 ppm DMSO stock solutions. After drying the leaves were infested with N2 nymphs. The samples were assessed for mortality and growth inhibition in comparison to untreated samples 5 days after infestation.

[4] = test system: Myzus persicae; experiment: Activity against Myzus persicae (green peach aphid), feeding/contact activity, sunflower leaf discs; settings: foliar, 144 h, application rate 200 ppm, aphid population of mixed ages, 6 days after infestation
Method: Example B4: Activity Against Myzus persicae (Green Peach Aphid) Feeding/Contact Activity
Sunflower leaf discs were placed onto agar in a 24-well microtiter plate and sprayed with aqueous test solutions prepared from 10'000 ppm DMSO stock solutions. After drying, the leaf discs were infested with an aphid population of mixed ages. The samples were assessed for mortality 6 days after infestation.

[5] = test system: Myzus persicae; experiment: Activity against Myzus persicae (green peach aphid), systemic activity, pea seedling roots in test solution; settings: 144 h, test rate 24 ppm, aphid population of mixed ages, 6 days after placing seedlings into test solutions
Method: Example B5: Activity Against Myzus persicae (Green Peach Aphid) Systemic Activity
Roots of pea seedlings infested with an aphid population of mixed ages were placed directly into aqueous test solutions prepared from 10'000 DMSO stock solutions. The samples were assessed for mortality 6 days after placing seedlings into test solutions.

[6] = test system: Plutella xylostella; experiment: Activity against Plutella xylostella (diamond back moth), artificial diet in 24-well plates; settings: 192 h, application rate 200 ppm, eggs, 8 days after infestation, in comparison to untreated samples, read-out: effect in at least one of the two categories (mortality or growth inhibition)
Method: Example B6: Activity Against Plutella xylostella (Diamond Back Moth)
24-well microtiter plates with artificial diet were treated with aqueous test solutions prepared from 10'000 ppm DMSO stock solutions by pipetting. After drying, Plutella eggs were pipetted through a plastic stencil onto a gel blotting paper and the plate was closed with it. The samples were assessed for mortality and growth inhibition in comparison to untreated samples 8 days after infestation.

[7] = test system: Spodoptera littoralis; experiment: Activity against Spodoptera littoralis (Egyptian cotton leaf worm), cotton leaf discs sprayed; settings: foliar, 72 h, application rate 200 ppm, L1 larvae, 3 days after infestation, in comparison to untreated samples, read-out: control (at least one of mortality, anti-feedant effect, growth inhibition)
Method: Example B7: Activity Against Spodoptera littoralis (Egyptian Cotton Leaf Worm)
Cotton leaf discs were placed onto agar in 24-well microtiter plates and sprayed with aqueous test solutions prepared from 10'000 ppm DMSO stock solutions. After drying the leaf discs were infested with five L1 larvae. The samples were assessed for mortality, anti-feeding effect, and growth inhibition in comparison to untreated samples 3 days after infestation. Control of Spodoptera littoralis by a test sample is given when at least one of the categories mortality, anti-feedant effect, and growth inhibition is higher than the untreated sample.

CCS(=O)(=O)c1cc(C2(C#N)CC2)cnc1-c1coc2cc(Cl)ccc2c1=O [P.1, 1-[6-(7-chloro-4-oxo-chromen-3-yl)-5-ethylsulfonyl-3-pyridyl]-cyclopropanecarbonitrile]
≥ 80%: percent control (mortality, anti-feedant effect or growth inhibition) at 200 ppm [1] | percent effect (mortality or growth inhibition) at 200 ppm [2] | percent effect (mortality or growth inhibition) at 200 ppm [3] | mortality at 200 ppm [4] | mortality at 24 ppm [5] | percent effect (mortality or growth inhibition) at 200 ppm [6] | percent control (mortality, anti-feedant effect or growth inhibition) at 200 ppm [7]

CCS(=O)(=O)c1cc(C2(C#N)CC2)cnc1-c1coc2cc(I)ccc2c1=O [P.2, 1-[5-ethylsulfonyl-6-(7-iodo-4-oxo-chromen-3-yl)-3-pyridyl]cyclopropanecarbonitrile]
≥ 80%: percent control (mortality, anti-feedant effect or growth inhibition) at 200 ppm [1] | percent effect (mortality or growth inhibition) at 200 ppm [2] | percent effect (mortality or growth inhibition) at 200 ppm [3] | mortality at 200 ppm [4] | percent effect (mortality or growth inhibition) at 200 ppm [6] | percent control (mortality, anti-feedant effect or growth inhibition) at 200 ppm [7]

CCS(=O)(=O)c1cc(C2(C#N)CC2)cnc1-c1coc2cc(Br)ccc2c1=O [P.3, 1-[6-(7-bromo-4-oxo-chromen-3-yl)-5-ethylsulfonyl-3-pyridyl]-cyclopropanecarbonitrile]
≥ 80%: percent control (mortality, anti-feedant effect or growth inhibition) at 200 ppm [1] | percent effect (mortality or growth inhibition) at 200 ppm [2] | percent effect (mortality or growth inhibition) at 200 ppm [3] | percent effect (mortality or growth inhibition) at 200 ppm [6] | percent control (mortality, anti-feedant effect or growth inhibition) at 200 ppm [7]

CCS(=O)(=O)c1cc(C2(C#N)CC2)cnc1-c1coc2cc(F)ccc2c1=O [P.4, 1-[5-ethylsulfonyl-6-(7-fluoro-4-oxo-chromen-3-yl)-3-pyridyl]cyclopropane-carbonitrile]
≥ 80%: percent control (mortality, anti-feedant effect or growth inhibition) at 200 ppm [1] | percent effect (mortality or growth inhibition) at 200 ppm [2] | percent effect (mortality or growth inhibition) at 200 ppm [3] | mortality at 24 ppm [5] | percent effect (mortality or growth inhibition) at 200 ppm [6] | percent control (mortality, anti-feedant effect or growth inhibition) at 200 ppm [7]

CCS(=O)(=O)c1cc(C2(C#N)CC2)cnc1-c1coc2cc(C3CC3)ccc2c1=O [P.5, 1-[6-(7-cyclopropyl-4-oxo-chromen-3-yl)-5-ethylsulfonyl-3-pyridyl]-cyclopropane-carbonitrile]
≥ 80%: percent control (mortality, anti-feedant effect or growth inhibition) at 200 ppm [1] | percent effect (mortality or growth inhibition) at 200 ppm [2] | percent effect (mortality or growth inhibition) at 200 ppm [3] | percent effect (mortality or growth inhibition) at 200 ppm [6] | percent control (mortality, anti-feedant effect or growth inhibition) at 200 ppm [7]

CCS(=O)(=O)c1cc(C2(C#N)CC2)cnc1-c1coc2cc(-c3ccc(F)cc3)ccc2c1=O [P.6, 1-[5-ethylsulfonyl-6-[7-(4-fluorophenyl)-4-oxo-chromen-3-yl]-3-pyridyl]cyclopropane-carbonitrile]
≥ 80%: percent effect (mortality or growth inhibition) at 200 ppm [2] | percent effect (mortality or growth inhibition) at 200 ppm [6] | percent control (mortality, anti-feedant effect or growth inhibition) at 200 ppm [7]

CCS(=O)(=O)c1cc(C2(C#N)CC2)cnc1-c1coc2cc(-c3cc(F)cc(F)c3)ccc2c1=O [P.7, 1-[6-[7-(3,5-difluorophenyl)-4-oxo-chromen-3-yl]-5-ethylsulfonyl-3-pyridyl]-cyclopropanecarbonitrile]
≥ 80%: percent control (mortality, anti-feedant effect or growth inhibition) at 200 ppm [1] | percent effect (mortality or growth inhibition) at 200 ppm [2] | percent effect (mortality or growth inhibition) at 200 ppm [3] | percent effect (mortality or growth inhibition) at 200 ppm [6] | percent control (mortality, anti-feedant effect or growth inhibition) at 200 ppm [7]
